Results as given in paper PMC10675528 (Pharmaceutics, 2023).
Read-outs that look alike come from different tables or passages of the source.

Key:
[1] = Distribution coefficient (log D6.8), 1-octanol/pH 6.8 isotonic phosphate buffer; assay type: physicochemical; settings: 1-octanol/isotonic phosphate buffer (pH 6.8)
Procedure: To measure distribution coefficients of test compounds in 1-octanol/pH 6.8 isotonic phosphate buffer system, 1-octanol and pH 6.8 isotonic phosphate buffer was pre-saturated with each other. […] Distribution of test compounds in the organic phase/aqueous phase was determined by quantifying the concentration of each test compound in the organic or aqueous phase using a UV-Vis spectrophotometer (Shimadzu, Tokyo, Japan) at 263 nm. The following equation was employed to calculate the distribution coefficients (log D6.8). In the equation, CO is the initial concentration of a compound in the 1-octanol phase or aqueous phase; Cw is the equilibrium concentration of a compound in the aqueous phase; and COc is the equilibrium concentration of a compound in 1-octanol: log D6.8=log(COc/CW)=log(COc/(CO−COc]

[2] = Incubation in the cecal contents of rats (conversion to RLZ); assay type: in vitro ADME, rat; settings: for conversion to RLZ in cecal contents (in words): 1 mM, 10% cecal contents, anaerobic
Procedure: (§1) Male Sprague-Dawley rats (250–260 g) were euthanized using CO2 gas, collecting the intestinal tract contents separately from the small intestine and cecum. The cecal contents were collected in an atmospheric bag (AtmosBag, Sigma, St. Louis, MO, USA) filled with N2 gas. The contents were suspended in pH 6.8 isotonic phosphate buffer (20%, w/v). To 5 mL of the cecal and small intestinal suspensions, each solution (5 mL) of RAS, SAR, and SGR (2.0 mM) dissolved of pH 6.8 isotonic phosphate buffer was added, and then incubated at 37 °C. Incubation with the cecal contents was conducted in the bag filled with N2 gas. A 0.5 mL portion of the mixtures was transferred to a microtube, followed by centrifugation at 10,000× g at 4 °C for 10 min. Supernatants (0.3 mL) were subjected to extraction with EA (0.3 mL) and subsequent centrifugation at 10,000× g at 4 °C for 7 min. The organic layer (0.2 mL) transferred to a new microtube was evaporated, followed by the addition of mobile phase A (0.2 mL).

[3] = Incubation in the small intestinal contents of rats; assay type: in vitro ADME; settings: rat small intestinal contents; for release of RLZ in the small intestinal contents: Supplementary Figure S2; for change in concentration in small intestinal contents: 12 h
Procedure: as §1

[4] = test system: GSK3β; assay: p-GS level in the inflamed distal colon (Western blot); assay type: in vivo, Sprague-Dawley rats; settings: oral once daily for 6 days
Procedure: (§2) Experimental colitis was induced in rats as previously described. […] The rats in each group were treated orally once daily, and the medication began three days after the induction of inflammation, and continued for six days. Twenty-four hours after the last medication, the anticolitic effects of drugs were evaluated assessing macroscopic and microscopic indices. Colonic-damage scores (CDS) were assigned using the modified scoring system shown in Supplementary Table S1. Colonic damage was scored using 4 independent observers blinded to the treatment conditions. Myeloperoxidase (MPO) activity was determined in the inflamed distal colon (4 cm) as previously described.
To prepare samples for Western blot analysis, tissue (distal colon) samples (0.2 g) were minced and homogenized in 2.0 mL of pre-chilled radioimmunoprecipitation assay (RIPA) buffer, which was agitated on ice for 0.5 h, and then centrifuged at 10,000× g at 4 °C for 10 min. The centrifuged lysates were subjected to protein quantification using the bicinchoninic acid reagent (Thermo Fisher Scientific, Waltham, MA, USA). […] The Western blot images were quantified using Image Lab software (version 5.2 build 14; Bio-Rad, Hercules, CA, USA). The mean of the quantified values was presented with the Western blot images in the figures (n = 3 for cell experiments, n = 5 for animal experiments).

[5] = Concentration of the conjugates in the blood after oral administration; assay type: in vivo, Sprague-Dawley rats; settings: equimolar dose, 4, 8, 12 h, Supplementary Figure S4
Procedure: Male Sprague-Dawley rats fasted for 24 h except for water. […] At 4, 8, and 12 h after the oral treatment, the plasma (0.3 mL) was obtained from the blood samples (collected via cardiac puncture) centrifuged at 10,000× g at 4 °C for 10 min. The plasma (0.25 mL) was extracted with EA (0.7 mL), and the organic layer (0.5 mL) was evaporated and dissolved in mobile phase A or B (0.1 mL). After filtration through a membrane filter (0.45 μm), the filtrate (20 μL) was injected to HPLC. To determine the concentrations of SAR and RAS in the blood, MeOH (0.9 mL) was added to the plasma (0.1 mL) and centrifuged at 10,000× g at 4 °C for 10 min. After filtration of the supernatants through a membrane filter (0.45 μm), the filtrate (20 μL) was injected to HPLC.

[6] = RLZ concentration in blood (plasma) after oral administration; assay type: in vivo, Sprague-Dawley rats
Procedure: The plasma (0.25 mL) was extracted with EA (0.7 mL), and the organic layer (0.5 mL) was evaporated and dissolved in mobile phase A or B (0.1 mL). After filtration through a membrane filter (0.45 μm), the filtrate (20 μL) was injected to HPLC. To determine the concentrations of SAR and RAS in the blood, MeOH (0.9 mL) was added to the plasma (0.1 mL) and centrifuged at 10,000× g at 4 °C for 10 min. After filtration of the supernatants through a membrane filter (0.45 μm), the filtrate (20 μL) was injected to HPLC.

[7] = cited from earlier work
[8] = test system: DNBS-induced rat colitis; assay: DNBS-induced rat colitis, anticolitic effects; assay type: in vivo, Sprague-Dawley rats
Procedure: as §2
To prepare samples for Western blot analysis, tissue (distal colon) samples (0.2 g) were minced and homogenized in 2.0 mL of pre-chilled radioimmunoprecipitation assay (RIPA) buffer, which was agitated on ice for 0.5 h, and then centrifuged at 10,000× g at 4 °C for 10 min. The centrifuged lysates were subjected to protein quantification using the bicinchoninic acid reagent (Thermo Fisher Scientific, Waltham, MA, USA). SDS-PAGE on a 7.5 or 10% gel was used for Western blot analysis of tissue lysates. To detect glycogen synthase (GS), phosphorylated GS (p-GS), cyclooxygenase (COX)-2, and inducible nitric oxide synthase (iNOS), anti-GS (Santa Cruz Biotechnology, Dallas, TX, USA), anti-p-GS (Cell Signaling Technology, Danvers, MA, USA), anti-COX-2 (sc-365374, Santa Cruz Biotechnology), and anti-iNOS (NOS-2) antibody (sc-7271, Santa Cruz Biotechnology) were used. SuperSignal chemiluminescence substrate (Thermo Fisher Scientific, Waltham, MA, USA) was used to visualize bands. α-Tubulin (Santa Cruz Biotechnology) was used as a loading control. The Western blot images were quantified using Image Lab software (version 5.2 build 14; Bio-Rad, Hercules, CA, USA). The mean of the quantified values was presented with the Western blot images in the figures (n = 3 for cell experiments, n = 5 for animal experiments).
ELISA kits were used to determine the level of CINC-3 and IL-10 in the inflamed distal colon as described previously. The ELISA was performed according to the manufacturer’s instructions.

[9] = 1-octanol/pH 6.8 buffer; cited from earlier work
[10] = Chemical stability in pH 1.2 and pH 6.8 buffers; assay type: physicochemical; settings: 0.1 mM, 12 h
Procedure: To test the chemical stabilities of SAR and SGR, the two compounds (0.1 mM) were incubated for 12 h in pH 1.2 HCl-NaCl buffer and pH 6.8 isotonic phosphate buffer, and change in the drug concentrations was monitored using HPLC analysis.

[11] = test system: Caco-2 cell monolayer; assay: Cell permeability assay using Caco-2 monolayers; assay type: in vitro ADME; settings: 500 µM apical, up to 24 h, compared with RAS
Procedure: Caco-2 cells (4 × 10^5 per insert) were seeded in Transwell 6-well inserts with a pore size of 0.4 μm (SPL Inc., Houston, TX, USA). DMEM containing 1% penicillin/streptomycin was added to the basolateral (3.0 mL) and apical (insert) compartments (2.0 mL). The cells were grown until the cell monolayer’s transepithelial electrical resistance value (EMD Millipore, Billerica, MA, USA) reached 2000 Ω.cm^2. […] At appropriate time intervals, the drug concentration in the basolateral compartment was determined using HPLC.

[12] = oral once daily for 6 days, ELISA
[13] = SAR L and H doses, dose-dependent, Western blot

Structure (SMILES) | logD at 12 h [1] | melting point | release of RLZ in the small intestinal contents [3] | conjugate (prodrug) in the blood [5] | change in concentration in buffer solutions [10] | change in concentration in small intestinal contents [3] | conversion to RLZ in cecal contents (in words) [2] | level of p-GS in the inflamed colon [4] | level of IL-10 in the inflamed colon [8, 12] | other results
N[C@@H](CC(=O)O)C(=O)Nc1nc2ccc(OC(F)(F)F)cc2s1 [AR, N-(L-aspart-1-yl)riluzole] | 0.8 | 163 °C | released a substantial amount of RLZ |  |  |  | conversion percentage to RLZ was lower than that of SAR |  |  | 
O=C(O)c1cc(/N=N/c2nc3ccc(OC(F)(F)F)cc3s2)ccc1O [RAS, reference compound] |  |  |  | detected |  |  |  | substantially diminished | further augmented | peak blood concentration of RLZ relative to that after oral RLZ ([6]; oral, equimolar doses (10 mg/kg RLZ)): approximately one-fifth; peak blood concentration of RLZ relative to that after oral RLZ [7]: approximately one-fifth; distribution coefficient (log D6.8) [9]: 2.1
O=C(O)CCC(=O)N[C@@H](CCC(=O)O)C(=O)Nc1nc2ccc(OC(F)(F)F)cc2s1 [SGR, (N-succinyl-L-glutam-1-yl)riluzole] | -2 |  |  |  | No significant change | No significant change | resistant to cecal conversion of RLZ |  |  | 

Now from value to molecule, other results behind:

logD at 12 h [1] | melting point | release of RLZ in the small intestinal contents [3] | conjugate (prodrug) in the blood [5] | change in concentration in buffer solutions [10] | change in concentration in small intestinal contents [3] | Structure (SMILES) | conversion to RLZ in cecal contents (in words) [2] | level of p-GS in the inflamed colon [4] | level of IL-10 in the inflamed colon [8, 12] | other results
1 |  | released a substantial amount of RLZ |  |  |  | N[C@@H](CCC(=O)O)C(=O)Nc1nc2ccc(OC(F)(F)F)cc2s1 [GR, N-(L-glutam-1-yl)riluzole] |  |  |  | 
-2.1 | 202 °C (dec.) |  | not detectable | No significant change | No significant change | O=C(O)CCC(=O)N[C@@H](CC(=O)O)C(=O)Nc1nc2ccc(OC(F)(F)F)cc2s1 [SAR, (N-succinyl-L-aspart-1-yl)riluzole] | readily converted to RLZ in a time-dependent manner | substantially diminished | further augmented | systemic absorption of RLZ (RLZ in blood, in words) ([6]; oral SAR 19.2 mg/kg): barely detectable; maximal plasma concentration of RLZ relative to oral RAS ([6]; oral, equimolar dose): approximately one-seventh; AR detected during incubation of SAR with the cecal contents ([2]; cecal contents): no AR was detected; MPO activity in the inflamed distal colon ([8]; SAR L and H doses, dose-dependent): lowered; CINC-3 level in the inflamed distal colon ([8]; SAR L and H doses, dose-dependent, ELISA): lowered; COX-2 level in the inflamed distal colon [8, 13]: lowered; iNOS level in the inflamed distal colon [8, 13]: lowered; colonic damage and inflammation compared with SSZ ([8]; SAR even at lower dose vs SSZ 30 mg/kg): more effective than SSZ; all anticolitic indices compared with RAS ([8]; equimolar dose (equivalent to 10 mg/kg RLZ)): significantly superior to RAS; colonic damage (CDS, H&E staining) ([8]; oral once daily for 6 days, SAR equivalent to 5 (L) and 10 (H) mg/kg RLZ): mitigated the pathological state of the inflamed colon at both doses; permeation through Caco-2 cell monolayer [11]: less efficient than RAS
